Data as given in patent US5686424A, “2-oxoethyl derivatives as immunosuppressants” (Miles Inc., priority 1995, dated 1997).
Like-named read-outs stand apart in the source and are kept apart here.

How the values were obtained:
human T-cells = assay: Suppression of Human T-Cell Proliferation Assay (PHA-stimulated, [3H]-thymidine incorporation); assay type: cell-based; settings: read-out: IC50
From the text: 2) Human T Lymphocyte Inhibition
Inhibition of mitogen-induced T-cell proliferation can be used to profile immunosuppressive activity of test compounds. In the description of the assay which follows, mitogen-induced T-cell activation was used to test the inhibitory potencies of select compounds of the present invention.
In an assay similar to that described by Bradley in Mishell et al. (Eds.), 1980, Selected Methods in Cellular Immunology, pp 156-161, W. H. Freeman & Co., San Fransisco, Calif., T-cells were stimulated by incubation with phytohemagglutinin (PHA) which binds to cell surface molecules, including the T-cell receptor. This stimulation results in proliferation which can be measured by incorporation of [^3 H]-thymidine into cellular DNA.
The immunosuppressive properties of the compounds of the present invention can be determined by adding various concentrations of the compounds to these cultures and measuring the effect on T-cell proliferation.
Suppression of Human T-Cell Proliferation Assay
Fresh LeukoPaks were obtained from the New York Blood Center, New York, N.Y. The cells, including erythrocytes and leukocytes, were diluted with Hank's Balanced Salt Solution (HBSS) (GIBCO, Grand Island, N.Y.) and layered over Lymphoprep (Nycomed Pharma AS, Oslo, Norway) in sterile 50 ml conical centrifuge tubes. Lymphocytes were isolated at the Hank's/Nycomed interface after centrifugation at 2000×g, 4° C. for 15 min. The lymphocytes were washed with Minimal Essential Medium (GIBCO) containing 2% fetal bovine serum (FBS) (Sigma Chemical Co., St. Louis, Mo.), 1% HEPES buffer (GIBCO) and 1% Penicillin-Stretomycin solution (GIBCO).
T-cells were further purified essentially by sheep erythrocyte (SRBC) rosetting as described by Morimoto et al., 1983, J. Immunol. 130:157. The isolated lymphocytes were adjusted to 2×10^7 cells/ml and 5 ml aliquots of the cell suspension were incubated for 10 minutes at room temperature with 5 ml of a 5% SRBC (Cappel, Organon Technika Corp., West Chester, Pa.) suspension. The cells were gently pelleted by centrifugation at 300 rpm for 10 minutes, followed by a 1 hour incubation at room temperature to allow rosette formation. The cells were gently resuspended,layered over Lymphoprep and centrifuged for 30 minutes at 500×g. The pellet, containing rosetted T-cells and SRBC was treated with ice cold buffered ammonium chloride (GIBCO) to lyse the erythrocytes. T-cells were washed twice with HBSS.
Purified T-cells were resuspended at 2×10^6 cells/ml in complete culture medium composed of RPMI-1640 (Whittaker Bioproducts, Walkerville, Md.) with 10% FBS (Sigma), 2 mM L-glutamine (GIBCO), 1% Penicillin-Streptomycin (GIBCO) and 15 mM HEPES (GIBCO). In 96-well plates (Becton Dickinson, Lincoln Park, N.J.), 0.1 ml aliquots of T-cell suspension were mixed with 0.05 ml of 40 μg/ml PHA-M (Sigma). The compounds of this invention were dissolved in dimethylsulfoxide at 10 mM and various dilutions in complete medium were added in duplicate wells (0.05 ml/well). The plates were incubated at 37° C. in a humidified atmosphere of 5% carbon dioxide and 95% air for 72 hours.
Proliferation was assessed by measurement of [^3 H]-thymidine incorporation. During the last 6 hours of incubation, the cells were pulse labelled with 1 μCi/well of [^3 H]-thymidine (New England Nuclear, Boston, Mass.). The cells were harvested onto glass fiber paper using a plate harvester and the radioactivity incorporated into cellular DNA corresponding to individual wells was measured by standard liquid scintillation counting methods.

NF-AT = NF-AT Inhibition Assay Directed β-Galactosidase Expression in FGL-5 cells; assay type: cell-based
Protocol: 3) NF-AT Assay Stimulation of T-cells leads to the appearance of several transcription factors, including one designated "NF-AT". These factors are involved in regulation of gene expression required for immunologic activation. Some of these transcription factors appear to have functions in a wide variety of cell types. By contrast, NF-AT is found primarily in T-cells and its role is restricted to early gene activation. […] Inhibition of NF-AT activity is measured using FGL-5 cells. FGL-5 is a cloned line of stably transfected Jurkat T-cells that contain two construct in which three tandem copies of the NF-AT DNA binding site direct transcription of both murine CD8 and the lacZ gene, encoding β-galactosidase ([…] et al., 1990, Genes & Development 4:1823). When these cells are stimulated with phorbol esters which activate protein kinase C and calcium ionophore to raise the intracellular calcium concentration, transcriptionally active NF-AT is produced. In T-cells, this normally leads to the expression of IL-2, T-cell growth factor. However, in FGL-5 cells NF-AT activation leads to the production of β-galactosidase which can be detected using an appropriate substrate. […] NF-AT Inhibition Assay Directed β-Galactosidase Expression This assay was performed essentially as described (Bierer et al., 1990, Proc. Natl. Acad. Sci. 87:9231). […] The assays were done with exponentially growing cells whose density was not greater than 0.5 million cells/ml. The cells were resuspended to 3 million cells/ml in medium and 0.1 ml was added to wells of a 96-well plate. The compounds of the present invention were dissolved in either ethanol or dimethylsulfoxide at 10 mM and […] of various dilutions in medium were added to cells in duplicate wells. Treatment controls consisted of duplicate wells containing 0.5 ml/well of either medium, ethanol or dimethylsulfoxide. The ethanol and dimethyl sulfoxide were at the same concentration as was used for the compounds. […] Phorbol dibutyrate (Sigma) and Ionomycin (Calbiochem) were dissolved at 50 μg/ml and 2 mM, respectively and stored at -70° C. […] For unstimulated cell controls, 0.5 ml/well of medium was added to duplicate wells. The plates were incubated overnight (16-18 hours) at 37° C. in a humidified atmosphere of 5% CO2 and air. β-galactosidase activity was measured as the fluorescence generated by the cleavage of 4-methyl umbelliferyl-β-D-galactoside (Sigma) at the β-galactoside bond. After overnight incubation, the cells were centrifuged at 500×g for 3 minutes in the 96-well plates and washed 3 times with PBS. […] The percent inhibition by each concentration of the compounds was calculated as: […]

FKBP = FKBP (Homo sapiens, UniProt P62942); assay: PPIase Inhibition Assay; assay type: biochemical; settings: concentration of inhibitor required for 50% inhibition of enzyme activity; FKBP, substrate Succinyl-Ala-Phe-Pro-Phe-para-nitroanilide; TABLE I
Sequence of FKBP (P62942 whole entry): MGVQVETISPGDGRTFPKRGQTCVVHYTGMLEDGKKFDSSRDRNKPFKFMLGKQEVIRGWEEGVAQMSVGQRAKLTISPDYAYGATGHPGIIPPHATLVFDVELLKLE
Protocol: 1) Inhibition of PPIase Activity
This assay follows in principle the procedure described in Kofron et al., 1991, Biochemistry 30:6127.
The three main reagents used are PPIase, a substrate for PPIase, and a selected inhibitor compound of the present invention. The basic principle behind this assay is the conversion of the cis isomer of the substrate to the trans form, which conversion is catalyzed by PPIase. Essentially, inhibition of this PPIase activity is measured for the selected compounds. A peptide chymotrypsin substrate containing a proline in the P2 position is only cleaved by chymotrypsin when the Phe-Pro bond is in the trans isomeric configuration. In the presence of excess chymotrypsin, all of the trans peptide isomers are cleaved within approximately five seconds, leaving only cis forms.
The cis peptide will spontaneously convert to the trans isomer at a slow rate. The cis to trans conversion is catalyzed by isomerases at a much faster rate than this spontaneous conversion. Proteins with PPIase activity are examples of such isomerases. After isomerization, the peptide is cleaved by chymotrypsin releasing p-nitroaniline which can be monitored at 390 nm. The rate of release is then calculated using a first order rate plus offset equation utilizing the ENZFITTER program (Leatherbarrow, BIOSOFT, Cambridge, United Kingdom).
In a plastic cuvette are added 950 ul of ice cold assay buffer (25 mM HEPES, pH 7.8, 100 mM NaCl), 10 uL of FKBP (2.5 uM in 10 mM Tris-Cl pH 7.5, 100 mM NaCl, 1 mM dithiothreitol), 25 ul of chymotrypsin (50 mg/ml in 1 mM HCl) and 10 ul of the test compound at various concentrations in dimethyl sulphoxide. The reaction is initiated by addition of 5 ul of substrate (Succinyl-Ala-Phe-Pro-Phe-para-nitroanilide, 5 mg/ml in 235 mM LiCl in trifluoroethanol).
The absorbance at 390 nm versus time is monitored for 90 sec using a Beckman DU70 spectrophotometer. The absorbance versus time data files are transferred to an IBM XT computer and the rate constants determined using the commercial enzfitter program. For each set of data, the uncatalyzed rate of conversion is measured and the uninhibited enzymatic rate determined. The data are expressed as % Activity remaining and are calculated as follows:
% Activity Remaining=(kobs -kuncat)/(kuninh
where kobs is the rate in the presence of a selected test compound, kuncat is the rate in the absence of enzyme, and kuninh is the rate in the presence of enzyme
Data was plotted as the velocity in the absence of the inhibitor (V-) divided by the velocity in the presence of inhibitor (V+) versus the inhibitor concentration. The IC50 can be determined following linear regression as the inhibitor concentration where

[1] = concentration inhibiting [3H]-thymidine incorporation of PHA-stimulated T-cells by 50%, 72 hours, TABLE 2
[2] = 50% inhibition of NF-AT directed β-galactosidase activity in FGL-5 cells stimulated with phorbol dibutyrate and ionomycin, TABLE 3

| IC50 (NF-AT; [2]) [µM] | IC50 (FKBP) [µM] | Compound | IC50 (human T-cells; [1]) [µM] | IC50 (human T-cells) [µM] | IC50 (NF-AT) [µM] |
| --- | --- | --- | --- | --- | --- |
| > 15 | – | CC[C@H](C)[C@H](NC(=O)[C@@H]1CCCCN1CC(=O)c1cc(OC)c(OC)c(OC)c1)C(=O)NCc1ccccc1 [Example 153, L-Isoleucine, N-[1-(2-(3,4,5-Trimethoxyphenyl)-2-Oxoethyl)-L-Homoprolyl] Benzylamide] | > 15 | – | – |
| – | < 50 | CC[C@H](C)[C@H](NC(=O)[C@@H]1CCCN1CC(=O)c1ccc(C)cc1)C(=O)NCc1ccccc1 [Example 14, L-Isoleucine, N-[1-(2-(4-Methylphenyl)-2-Oxoethyl)-L-Prolyl] Benzylamide] | > 50 | – | – |
| – | < 50 | CC[C@H](C)[C@H](NC(=O)[C@@H]1CCCN1C(C)C(=O)c1ccccc1)C(=O)NCc1ccccc1 (stereo partly drawn) [Example 19, L-Isoleucine, N-[1-(1-Methyl-2-Phenyl-2-Oxoethyl)-L-Prolyl] Benzylamide] | 18 | – | – |
| – | < 50 | CC[C@H](C)[C@H](NC(=O)[C@@H]1CCCCN1CC(=O)OCc1ccccc1)C(=O)NCc1ccccc1 [Example 23] | 62 | – | – |
| – | > 5 | CC[C@H](C)[C@H](NC(=O)[C@@H]1CCCN1CC(=O)N1CCCC1)C(=O)NCc1ccccc1 [Example 78, L-Isoleucine, N-[1-[2-(1-Pyrrolidine)-2-Oxoethyl]-L-Prolyl] Benzylamide] | 100 | – | – |
| – | < 50 | CC[C@H](C)[C@H](NC(=O)[C@@H]1CCCN1CC(=O)c1ccc(O)c(O)c1)C(=O)NCc1ccccc1 [Example 21, L-Isoleucine, N-[1-(2-(3,4-Dihydroxyphenyl)-2-Oxoethyl)-L-Prolyl] Benzylamide] | 34 | – | – |
| – | < 50 | CC[C@H](C)[C@H](NC(=O)[C@@H]1CCCN1CC(=O)c1ccc(OC)cc1)C(=O)NCc1ccccc1 [Example 15, L-Isoleucine, N-[1-(2-(4-Methoxylphenyl)-2-Oxoethyl)-L-Prolyl] Benzylamide] | 17 | – | – |
| – | 5 | CC[C@H](C)[C@H](NC(=O)[C@@H]1CCCN1CC(=O)c1ccc(F)cc1)C(=O)NCc1ccccc1 [Example 33, L-Isoleucine, N-[1-(2-(4-Fluorophenyl)-2-Oxoethyl)-L-Prolyl] Benzylamide] | 42 | – | – |

Second part, the compound before the results:

| Compound | IC50 (NF-AT; [2]) [µM] | IC50 (FKBP) [µM] | IC50 (human T-cells; [1]) [µM] | IC50 (human T-cells) [µM] | IC50 (NF-AT) [µM] |
| --- | --- | --- | --- | --- | --- |
| CC[C@H](C)[C@H](NC(=O)[C@@H]1CCCN1CC(=O)C1(c2ccc(Cl)cc2)CCCCC1)C(=O)NCc1ccccc1 [Example 114, L-Isoleucine, N-[1-(2-(1-(4-Chlorophenyl)cyclohexyl)-2-Oxoethyl)-L-Prolyl] Benzylamide] | 10 | < 5 | 7 | – | – |
| L-Isoleuclne, N-[1-(2-(1-Methyl-Cyclohexyl)-2-Oxoethyl)-L-Prolyl] Benzylamide [Example 44] | – | – | – | 12 | 24 |
| CC[C@H](C)[C@H](NC(=O)[C@@H]1CCCN1CC(=O)C(C)(C)C)C(=O)NCc1ccccc1 [Example 26, L-Isoleucine, N-[1-(2-tert-Butyl-2-Oxoethyl)-L-Proline] Benzylamlde] | – | < 50 | 58 | – | – |
| CC[C@H](C)[C@H](NC(=O)[C@@H]1CCCN1CC(=O)N1CCC2(CC1)OCCO2)C(=O)NCc1ccccc1 [Example 73, L-Isoleucine, N-[1-(2-(1,4-Dioxa-8-aza-spiro[4.5]dec-8-yl)-2-Oxoethyl)-L-Prolyl] Benzylamide] | – | < 5 | > 50 | – | – |
| CC[C@H](C)[C@H](NC(=O)[C@@H]1CCCN1CC(=O)c1ccc(Cl)cc1)C(=O)NCc1ccccc1 [Example 13, L-Isoleucine, N-[1-(2-(4-Chlorophenyl)-2-Oxoethyl)-L-Prolyl] Benzylamlde] | – | < 50 | > 50 | – | – |
| CC[C@H](C)[C@H](NC(=O)[C@@H]1CCCN1CC(=O)c1ccc(Br)cc1)C(=O)NCc1ccccc1 [Example 34, L-Isoleucine, N-[1-(2-(4-Bromophenyl)-2-Oxoethyl)-L-Prolyl] Benzylamide] | – | < 5 | 40 | – | – |
